In ChEMBL document CHEMBL1932917, “4,5-dihydropyridazin-3-one derivatives as histamine H₃ receptor inverse agonists” (Bioorg Med Chem Lett, 2012):
One block for each compound: values may come before it.

Assays:
[1] = target: Histamine H3 receptor (Rattus norvegicus, UniProt Q9QYN8); assay: Displacement of [3H]NAMH from rat histamine H3 receptor expressed in CHO cells; assay type: cell-based
[2] = target: T1, Histamine H3 receptor (Homo sapiens, UniProt Q9Y5N1); assay: Displacement of [3H]NAMH from human histamine H3 receptor expressed in CHO cells; assay type: cell-based
T1 sequence (Q9Y5N1 whole entry): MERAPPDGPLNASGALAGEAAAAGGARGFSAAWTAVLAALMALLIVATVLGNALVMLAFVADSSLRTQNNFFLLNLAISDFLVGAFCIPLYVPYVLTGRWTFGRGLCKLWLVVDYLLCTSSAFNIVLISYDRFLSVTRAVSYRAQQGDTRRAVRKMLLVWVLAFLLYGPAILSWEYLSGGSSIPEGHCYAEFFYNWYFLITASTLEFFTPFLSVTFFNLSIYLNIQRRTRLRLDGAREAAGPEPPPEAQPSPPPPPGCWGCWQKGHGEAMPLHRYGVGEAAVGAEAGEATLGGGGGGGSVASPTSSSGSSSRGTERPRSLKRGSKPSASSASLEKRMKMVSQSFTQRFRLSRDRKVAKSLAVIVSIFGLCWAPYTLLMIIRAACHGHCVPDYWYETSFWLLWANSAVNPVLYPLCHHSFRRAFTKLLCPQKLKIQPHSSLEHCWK

[3] = target: Histamine H2 receptor (Homo sapiens) (UniProt P25021); assay: Inhibition human histamine H2 receptor at 10 uM
Histamine H2 receptor (Homo sapiens), sequence (P25021 whole entry): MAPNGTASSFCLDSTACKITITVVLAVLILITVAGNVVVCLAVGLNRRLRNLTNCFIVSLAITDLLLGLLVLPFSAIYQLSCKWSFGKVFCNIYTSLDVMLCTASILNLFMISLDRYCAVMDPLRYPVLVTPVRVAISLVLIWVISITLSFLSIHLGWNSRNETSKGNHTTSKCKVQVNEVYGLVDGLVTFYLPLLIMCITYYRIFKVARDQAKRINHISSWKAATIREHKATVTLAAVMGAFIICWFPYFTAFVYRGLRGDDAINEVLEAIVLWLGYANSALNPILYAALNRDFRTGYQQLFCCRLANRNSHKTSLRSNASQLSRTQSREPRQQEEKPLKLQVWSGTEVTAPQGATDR

[4] = Half life in rat at 1 mg/kg, iv; assay type: ADME, organism-based; parameters: dose 1 mg/kg, route intravenous; details: in vivo
[5] = Ratio of drug level in brain to plasma in rat at 10 mg/kg, ip after 6 hrs; assay type: ADME, organism-based; parameters: dose 10 mg/kg, route intraperitoneal; details: brain/plasma, read-out: BPR
[6] = Plasma protein binding in human; assay type: ADME, cell-free; details: read-out: PPB (converted)
[7] = Half life in dog liver microsomes; assay type: ADME, Canis lupus familiaris, Microsome
[8] = tested on: Rattus norvegicus; assay: Effect on sleep-awake cycle in EEG/EMG rat model assessed as wake promotion time at 10 mg/kg, ip after 3 hrs relative to control; assay type: functional; details: route intraperitoneal
[9] = Solubility of the compound in water at pH 7.4; assay type: physicochemical
[10] = target: T2, Cytochrome P450 1A2 (Homo sapiens, UniProt P05177); assay: Inhibition of CYP1A2; assay type: ADME
T2 sequence (P05177 whole entry): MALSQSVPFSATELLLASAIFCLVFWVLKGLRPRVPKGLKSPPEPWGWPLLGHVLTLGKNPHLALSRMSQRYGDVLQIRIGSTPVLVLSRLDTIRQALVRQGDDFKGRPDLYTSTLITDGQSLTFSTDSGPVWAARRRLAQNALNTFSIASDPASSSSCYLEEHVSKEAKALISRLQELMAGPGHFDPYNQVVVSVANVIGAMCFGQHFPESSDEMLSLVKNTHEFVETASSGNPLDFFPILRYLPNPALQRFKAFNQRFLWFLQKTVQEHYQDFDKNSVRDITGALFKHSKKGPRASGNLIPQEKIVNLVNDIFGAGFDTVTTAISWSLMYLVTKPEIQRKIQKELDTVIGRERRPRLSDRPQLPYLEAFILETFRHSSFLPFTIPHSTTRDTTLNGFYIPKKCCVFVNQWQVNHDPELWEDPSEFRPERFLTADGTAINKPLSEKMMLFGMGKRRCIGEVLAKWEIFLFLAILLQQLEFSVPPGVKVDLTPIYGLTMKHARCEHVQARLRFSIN

[11] = tested on: Rattus norvegicus; assay: Effect on sleep-awake cycle in EEG/EMG rat model assessed as wake promotion time at 10 mg/kg, ip after 4 hrs relative to control; assay type: functional; details: route intraperitoneal
[12] = Half life in human liver microsomes; assay type: ADME, Microsome
[13] = tested on: Rattus norvegicus; assay: Effect on sleep-awake cycle in EEG/EMG rat model assessed as wake promotion at 10 mg/kg, ip after 4 hrs (reference value: 80 +/- 5 mins); assay type: functional; details: route intraperitoneal
[14] = Half life in mouse liver microsomes; assay type: ADME, Microsome
[15] = tested on: Rattus norvegicus; assay: Inhibition of RAMH-induced dipsogenia in po dosed rat; assay type: functional
[16] = AUC in rat at 5 mg/kg, po; assay type: ADME, organism-based, Plasma; parameters: dose 5 mg/kg, route oral; details: plasma
[17] = target: Cytochrome P450 2C9 (Homo sapiens, UniProt P11712); assay: Inhibition of CYP2C9; assay type: ADME
Cytochrome P450 2C9, sequence (P11712 whole entry): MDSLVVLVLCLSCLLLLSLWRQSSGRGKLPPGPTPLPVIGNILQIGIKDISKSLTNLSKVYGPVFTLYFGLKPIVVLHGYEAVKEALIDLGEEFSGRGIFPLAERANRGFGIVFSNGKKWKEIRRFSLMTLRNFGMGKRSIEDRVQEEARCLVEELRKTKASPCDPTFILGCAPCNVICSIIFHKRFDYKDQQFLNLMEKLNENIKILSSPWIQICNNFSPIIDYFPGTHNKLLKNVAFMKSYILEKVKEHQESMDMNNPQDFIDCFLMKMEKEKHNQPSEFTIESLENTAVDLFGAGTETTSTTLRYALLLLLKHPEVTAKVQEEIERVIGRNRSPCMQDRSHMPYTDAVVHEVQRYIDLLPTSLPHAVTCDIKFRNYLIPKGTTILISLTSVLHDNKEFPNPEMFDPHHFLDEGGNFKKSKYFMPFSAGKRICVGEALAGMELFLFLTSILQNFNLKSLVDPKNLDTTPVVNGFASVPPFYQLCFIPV

[18] = Apparent permeability of the compound in human Caco2 cells; assay type: ADME, cell-based; details: Caco-2
[19] = target: Cytochrome P450 2C19 (Homo sapiens, UniProt P33261); assay: Inhibition of CYP2C19; assay type: ADME
Cytochrome P450 2C19, sequence (P33261 whole entry): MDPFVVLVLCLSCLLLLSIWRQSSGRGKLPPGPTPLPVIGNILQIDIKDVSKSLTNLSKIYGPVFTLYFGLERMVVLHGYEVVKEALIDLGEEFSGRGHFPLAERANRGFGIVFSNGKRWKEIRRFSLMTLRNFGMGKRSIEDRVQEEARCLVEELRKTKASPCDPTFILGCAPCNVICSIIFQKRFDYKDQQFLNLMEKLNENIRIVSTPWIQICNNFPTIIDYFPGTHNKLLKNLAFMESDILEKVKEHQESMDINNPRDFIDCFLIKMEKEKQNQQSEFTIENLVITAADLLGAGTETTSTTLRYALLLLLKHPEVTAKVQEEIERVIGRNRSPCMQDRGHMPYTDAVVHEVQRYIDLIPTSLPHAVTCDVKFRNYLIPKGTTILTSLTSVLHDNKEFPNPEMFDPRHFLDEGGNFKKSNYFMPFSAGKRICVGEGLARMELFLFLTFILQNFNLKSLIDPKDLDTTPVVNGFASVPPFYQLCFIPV

[20] = tested on: Rattus norvegicus; assay: Effect on sleep-awake cycle in EEG/EMG rat model assessed as wake promotion at 10 mg/kg, ip after 17 hrs relative to control; assay type: functional; details: route intraperitoneal
[21] = Half life in monkey liver microsomes; assay type: ADME, Macaca mulatta, Microsome; details: rhesus monkey
[22] = Oral bioavailability in rat at 5 mg/kg; assay type: ADME, organism-based; details: in vivo
[23] = target: T1, Histamine H3 receptor; assay: Inverse agonist activity at human histamine H3 receptor by [35S]GTPgammaS binding assay; assay type: functional
[24] = Volume of distribution in rat at 1 mg/kg, iv; assay type: ADME, organism-based; parameters: dose 1 mg/kg, route intravenous; details: in vivo
[25] = target: Cytochrome P450 3A4 (Homo sapiens, UniProt P08684); assay: Inhibition of CYP3A4; assay type: ADME
Cytochrome P450 3A4, sequence (P08684 whole entry): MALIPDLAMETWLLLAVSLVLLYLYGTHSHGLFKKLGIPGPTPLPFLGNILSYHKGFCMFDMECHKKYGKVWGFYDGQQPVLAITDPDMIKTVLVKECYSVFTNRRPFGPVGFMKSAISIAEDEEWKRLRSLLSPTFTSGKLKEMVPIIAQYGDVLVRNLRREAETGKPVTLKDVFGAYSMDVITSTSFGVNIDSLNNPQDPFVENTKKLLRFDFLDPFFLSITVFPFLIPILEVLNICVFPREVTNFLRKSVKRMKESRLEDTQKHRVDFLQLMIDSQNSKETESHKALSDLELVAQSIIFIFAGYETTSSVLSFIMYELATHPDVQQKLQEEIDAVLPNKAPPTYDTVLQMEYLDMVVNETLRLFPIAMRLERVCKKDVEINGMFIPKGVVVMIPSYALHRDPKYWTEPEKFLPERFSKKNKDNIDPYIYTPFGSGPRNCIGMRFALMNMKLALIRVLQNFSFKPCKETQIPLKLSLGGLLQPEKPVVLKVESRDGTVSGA

[26] = target: Histamine H1 receptor (Homo sapiens) (UniProt P35367); assay: Inhibition human histamine H1 receptor at 10 uM
Histamine H1 receptor (Homo sapiens), sequence (P35367 whole entry): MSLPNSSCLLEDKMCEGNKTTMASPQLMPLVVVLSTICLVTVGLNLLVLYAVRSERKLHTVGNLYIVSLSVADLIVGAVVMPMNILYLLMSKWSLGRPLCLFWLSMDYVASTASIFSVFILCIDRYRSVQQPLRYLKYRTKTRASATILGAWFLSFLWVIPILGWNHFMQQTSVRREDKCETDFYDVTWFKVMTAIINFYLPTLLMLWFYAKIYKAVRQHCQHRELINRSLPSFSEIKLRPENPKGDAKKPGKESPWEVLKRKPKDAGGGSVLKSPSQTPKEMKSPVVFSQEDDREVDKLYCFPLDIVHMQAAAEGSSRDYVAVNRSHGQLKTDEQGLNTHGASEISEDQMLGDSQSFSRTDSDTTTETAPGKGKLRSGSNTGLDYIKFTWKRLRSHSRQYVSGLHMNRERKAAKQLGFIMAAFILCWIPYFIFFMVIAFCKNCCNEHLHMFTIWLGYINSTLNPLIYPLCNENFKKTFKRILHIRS

[27] = Plasma protein binding in rat; assay type: ADME, cell-free; details: read-out: PPB (converted)
[28] = tested on: Rattus norvegicus; assay: Effect on sleep-awake cycle in EEG/EMG rat model assessed as wake promotion at 1 mg/kg, ip after 4 hrs (reference value: 80 +/- 5 mins); assay type: functional; details: route intraperitoneal
[29] = Solubility of the compound in water at pH 2; assay type: physicochemical
[30] = target: Histamine H4 receptor (Homo sapiens) (UniProt Q9H3N8); assay: Inhibition human histamine H4 receptor at 10 uM
[31] = Cmax in rat at 5 mg/kg, po; assay type: ADME, organism-based; parameters: dose 5 mg/kg, route oral; details: in vivo
[32] = tested on: Rattus norvegicus; assay: Effect on sleep-awake cycle in EEG/EMG rat model assessed as wake promotion at 10 mg/kg, ip after 5 hrs relative to control; assay type: functional; details: route intraperitoneal
[33] = target: T1, Histamine H3 receptor; assay: Antagonist activity at human histamine H3 receptor by [35S]GTPgammaS binding assay; assay type: functional
[34] = Drug uptake in rat brain at 5 mg/kg, po after 6 hrs; assay type: ADME, organism-based; parameters: dose 5 mg/kg, route oral; details: read-out: Drug uptake
[35] = tested on: Rattus norvegicus; assay: Effect on sleep-awake cycle in ip dosed EEG/EMG rat model assessed as wake promotion after 4 hrs relative to control; assay type: functional, organism-based
[36] = target: Cytochrome P450 2D6 (Homo sapiens, UniProt P10635); assay: Inhibition of CYP2D6; assay type: ADME
Cytochrome P450 2D6, sequence (P10635 whole entry): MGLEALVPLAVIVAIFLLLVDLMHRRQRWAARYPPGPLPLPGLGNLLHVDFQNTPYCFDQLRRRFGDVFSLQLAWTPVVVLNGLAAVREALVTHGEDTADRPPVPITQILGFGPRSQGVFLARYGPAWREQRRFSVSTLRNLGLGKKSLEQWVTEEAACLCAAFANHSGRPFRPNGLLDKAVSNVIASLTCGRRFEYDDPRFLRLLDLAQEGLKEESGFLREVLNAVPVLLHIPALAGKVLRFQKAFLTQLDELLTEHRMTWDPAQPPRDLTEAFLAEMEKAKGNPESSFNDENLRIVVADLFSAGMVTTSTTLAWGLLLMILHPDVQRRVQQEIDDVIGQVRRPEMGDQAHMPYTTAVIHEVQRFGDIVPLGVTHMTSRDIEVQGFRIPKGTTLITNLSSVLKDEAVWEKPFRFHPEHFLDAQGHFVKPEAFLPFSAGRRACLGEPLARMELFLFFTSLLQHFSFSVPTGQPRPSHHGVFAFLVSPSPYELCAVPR

[37] = Plasma protein binding in dog; assay type: ADME, cell-free, Canis lupus familiaris; details: read-out: PPB (converted)
[38] = Half life in rat liver microsomes; assay type: ADME, Microsome
[39] = Clearance in rat at 1 mg/kg, iv; assay type: ADME, organism-based; parameters: dose 1 mg/kg, route intravenous; details: in vivo
[40] = tested on: Rattus norvegicus; assay: Effect on sleep-awake cycle in EEG/EMG rat model assessed as wake promotion at 3 mg/kg, ip after 4 hrs (reference value: 80 +/- 5 mins); assay type: functional; details: route intraperitoneal

Histamine H3 receptor (Rattus norvegicus, UniProt Q9QYN8), sequence (Q9QYN8 whole entry): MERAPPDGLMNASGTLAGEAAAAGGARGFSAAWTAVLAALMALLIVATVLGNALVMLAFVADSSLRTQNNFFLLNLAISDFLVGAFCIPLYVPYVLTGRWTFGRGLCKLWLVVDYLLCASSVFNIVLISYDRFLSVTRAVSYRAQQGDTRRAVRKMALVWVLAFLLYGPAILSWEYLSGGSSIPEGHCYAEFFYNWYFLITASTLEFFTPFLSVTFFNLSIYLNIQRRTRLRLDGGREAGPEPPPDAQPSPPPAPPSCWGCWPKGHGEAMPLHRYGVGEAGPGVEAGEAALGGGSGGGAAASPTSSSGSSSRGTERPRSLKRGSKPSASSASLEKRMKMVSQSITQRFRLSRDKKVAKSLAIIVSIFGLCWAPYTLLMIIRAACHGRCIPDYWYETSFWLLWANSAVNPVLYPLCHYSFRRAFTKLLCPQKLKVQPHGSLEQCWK

Ki [1]: 59 nM
Ki [2]: 20 nM
SMILES: C[C@@H]1CCCN1CCCOc1ccc(C2=NNC(=O)CC2(C)C)cc1

inhibition [3]: < 30%
half-life [4]: 114 min
Kp at 6 h [5]: 2.4
fraction unbound [6]: 0.74
half-life [7]: > 40 min
solubility [9]: > 2000 µg/mL
IC50 [10]: > 30000 nM
half-life [12]: > 40 min
half-life [14]: > 40 min
AUC [16]: 837 ng·h/mL
IC50 [17]: > 30000 nM
Papp [18]: 14 ×10⁻⁶ cm/s
IC50 [19]: > 30000 nM
half-life [21]: > 40 min
bioavailability [22]: 38%
EC50 [23]: 0.73 nM
Ki [1]: 13 nM
Vd [24]: 4.7 L/kg
IC50 [25]: > 30000 nM
inhibition [26]: < 30%
fraction unbound [27]: 0.72
solubility [29]: > 2000 µg/mL
inhibition [30]: < 30%
Cmax [31]: 189 ng/mL
Ki [2]: 4.3 nM
Kb [33]: 0.18 nM
concentration at 6 h [34]: 900 nM
IC50 [36]: > 30000 nM
fraction unbound [37]: 0.84
half-life [38]: > 40 min
clearance [39]: 27 mL/min/kg
SMILES: C[C@@H]1CCCN1CCCOc1ccc(C2=NNC(=O)C(C)(C)C2)cc1
Activity [8]: 90%
Activity [11]: 150%
Activity [13]: 201 min
ED50 [15]: 0.16 mg/kg
inhibition [15]: Dose-dependent effect
Activity [20]: 203 min
Activity [28]: 119 min
Activity [32]: 130 min
Activity [35]: Dose-dependent effect
Activity [40]: 127 min

Ki [1]: 16 nM
Ki [2]: 5 nM
SMILES: C[C@@H]1CCCN1CCCOc1ccc(C2=NN(C)C(=O)CC2)cc1

Ki [1]: 25 nM
Ki [2]: 2 nM
SMILES: C[C@@H]1CCCN1CCCOc1ccc(C2=NN(Cc3ccccc3)C(=O)CC2)cc1

Ki [1]: 85 nM
Ki [2]: 83 nM
SMILES: CC1CC(=O)NN=C1c1ccc(OCCCN2CCCC2)cc1 (racemic)

Ki [1]: 10 nM
Ki [2]: 5 nM
SMILES: C[C@@H]1CCCN1CCCOc1ccc(C2=NN(CC(F)(F)F)C(=O)CC2)cc1

Ki [1]: 42 nM
Ki [2]: 8.8 nM
SMILES: C[C@@H]1CCCN1CCCOc1ccc(C2=NNC(=O)C(c3ccccn3)C2)cc1 (mixture of isomers)

Kb [33]: 0.54 nM
SMILES: CC1CC(=O)NN=C1c1ccc(OCCCN2CCC[C@H]2C)cc1 (single isomer, unassigned; isomer 2)

Ki [1]: 63 nM
Ki [2]: 9 nM
SMILES: CC(C)N1N=C(c2ccc(OCCCN3CCC[C@H]3C)cc2)CCC1=O

Ki [1]: 62 nM
Ki [2]: 38 nM
SMILES: O=C1CCC(c2ccc(OCCCN3CCCCC3)cc2)=NN1CC(F)(F)F

half-life [4]: 108 min
Kp at 6 h [5]: 1.8
half-life [7]: > 40 min
IC50 [10]: > 30000 nM
half-life [12]: > 40 min
half-life [14]: > 40 min
AUC [16]: 1360 ng·h/mL
IC50 [17]: > 30000 nM
IC50 [19]: > 30000 nM
half-life [21]: > 40 min
bioavailability [22]: 40%
EC50 [23]: 1.3 nM
Ki [1]: 29 nM
Vd [24]: 3.5 L/kg
IC50 [25]: > 30000 nM
Cmax [31]: 301 ng/mL
Ki [2]: 6.8 nM
IC50 [36]: > 30000 nM
half-life [38]: > 40 min
SMILES: CC1CC(=O)NN=C1c1ccc(OCCCN2CCC[C@H]2C)cc1 (stereo in doubt; 19a)
